Measured values: patent publication US10590140B2, “Tetrahydropyrimidodiazepine and dihydropyridodiazepine compounds for treating pain and pain related conditions” (ESTEVE PHARMACEUTICALS, S.A., priority 2016, dated 2020)
Where two headings read alike, the source gives them in different places.

Target: human α2δ-1 subunit of Cav2.2 calcium channel (Homo sapiens (Human), UniProt P54289)
Test: Binding assay to human α2δ-1 subunit of Cav2.2 calcium channel ([3H]-Gabapentin)
Summary of the method: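 Radioactivity on dried GF/C filters quantified by scintillation after filtration and three cold Tris-HCl (pH 7.4) washes. Incubation ran 60 min at 27° C with [3H]-gabapentin; 10 μM pregabalin gave nonspecific binding.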

[1] = binding to α2δ-1, [3H]-Gabapentin, read-out: Ki (nM) α2δ-1

Chain of human α2δ-1 subunit of Cav2.2 calcium channel (P54289 25-1103): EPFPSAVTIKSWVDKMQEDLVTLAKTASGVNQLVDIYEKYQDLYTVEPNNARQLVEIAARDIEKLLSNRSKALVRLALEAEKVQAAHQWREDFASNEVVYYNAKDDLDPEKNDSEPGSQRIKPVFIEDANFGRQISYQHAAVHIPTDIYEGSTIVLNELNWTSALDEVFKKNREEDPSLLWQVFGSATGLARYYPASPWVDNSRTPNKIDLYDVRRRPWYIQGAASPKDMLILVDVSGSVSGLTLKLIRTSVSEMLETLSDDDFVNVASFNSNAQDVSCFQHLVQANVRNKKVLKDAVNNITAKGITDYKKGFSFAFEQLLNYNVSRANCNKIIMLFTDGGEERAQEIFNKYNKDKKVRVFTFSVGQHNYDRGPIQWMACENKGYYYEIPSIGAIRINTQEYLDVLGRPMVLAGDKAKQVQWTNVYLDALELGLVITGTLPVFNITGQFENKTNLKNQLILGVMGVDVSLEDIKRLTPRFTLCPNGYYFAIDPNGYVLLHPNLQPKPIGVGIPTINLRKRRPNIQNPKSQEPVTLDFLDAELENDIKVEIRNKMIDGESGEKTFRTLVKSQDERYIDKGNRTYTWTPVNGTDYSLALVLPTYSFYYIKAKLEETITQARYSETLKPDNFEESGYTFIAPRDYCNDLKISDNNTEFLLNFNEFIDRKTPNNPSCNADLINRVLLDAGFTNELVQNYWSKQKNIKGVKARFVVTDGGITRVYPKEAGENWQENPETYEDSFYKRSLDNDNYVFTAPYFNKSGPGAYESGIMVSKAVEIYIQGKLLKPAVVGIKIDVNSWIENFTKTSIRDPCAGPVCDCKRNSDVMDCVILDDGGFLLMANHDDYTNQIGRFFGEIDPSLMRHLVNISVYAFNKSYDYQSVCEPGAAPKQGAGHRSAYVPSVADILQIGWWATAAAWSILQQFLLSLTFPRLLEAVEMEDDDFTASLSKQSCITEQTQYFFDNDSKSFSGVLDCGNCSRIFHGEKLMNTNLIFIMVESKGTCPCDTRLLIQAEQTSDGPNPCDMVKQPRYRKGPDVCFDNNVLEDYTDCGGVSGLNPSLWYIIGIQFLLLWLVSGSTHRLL

| Ki [1] [nM] | SMILES | other results |
| --- | --- | --- |
| > 3000 | COc1ncc2c(n1)N(C)CCN(c1cccc(CO[C@H](CCN(C)C(=O)OC(C)(C)C)c3ccccc3)c1)C2=O [Example 138, tert-Butyl (R)-(3-((3-(2-methoxy-9-methyl-5-oxo-5,7,8,9-tetrahydro-6H-pyrimido[4,5-e][1,4]diazepin-6-yl)benzyl)oxy)-3-phenylpropyl)(methyl)carbamate] | – |
| > 3000 | CSc1ncc2c(n1)N(C)CCN(c1cccc(OC(C)CN(C)C(=O)OC(C)(C)C)c1)C2=O (stereo not drawn) [Example 6, tert-butyl methyl(2-(3-(9-methyl-2-(methylthio)-5-oxo-5,7,8,9-tetrahydro-6H-pyrimido[4,5-e][1,4]diazepin-6-yl)phenoxy)propyl) carbamate] | – |
| > 3000 | CCNc1ncc2c(n1)N(C)CCN(c1cccc(-n3cc(CN(Cc4ccccc4)C(=O)OC(C)(C)C)nn3)c1)C2=O [Example 118, tert-butyl benzyl((1-(3-(2-(ethylamino)-9-methyl-5-oxo-5,7,8,9-tetrahydro-6H-pyrimido[4,5-e][1,4]diazepin-6-yl)phenyl)-1H-1,2,3-triazol-4-yl)methyl)carbamate] | – |
| > 3000 | CN(CCC(OCc1cccc(N2CCN(C)c3ncncc3C2=O)c1)c1cccs1)C(=O)OC(C)(C)C (stereo not drawn) [Example 146, tert-butyl methyl(3-((3-(9-methyl-5-oxo-5,7,8,9-tetrahydro-6H-pyrimido[4,5-e][1,4]diazepin-6-yl)benzyl)oxy)-3-(thiophen-2-yl)propyl)carbamate] | – |
| 500 to 3000 | CCNc1cc2c(cn1)C(=O)N(c1cccc(-c3nnc(C)n3CC)c1)CCN2C [Example 55, 4-(3-(4-ethyl-5-methyl-4H-1,2,4-triazol-3-yl)phenyl)-8-(ethylamino)-1-methyl-1,2,3,4-tetrahydro-5H-pyrido[4,3-e][1,4]diazepin-5-one] | – |
| > 3000 | CSc1ncc2c(n1)N(C)CCN(c1cccc(C(C)(C)CN(C)C(=O)OC(C)(C)C)c1)C2=O [Example 25, tert-butyl methyl(2-methyl-2-(3-(9-methyl-2-(methylthio)-5-oxo-5,7,8,9-tetrahydro-6H-pyrimido[4,5-e][1,4]diazepin-6-yl)phenyl)propyl) carbamate] | – |
| > 3000 | CNCC(OCc1ccccc1CN1CCN(C)c2nc(C)ncc2C1=O)c1ccccc1 (stereo not drawn) [Example 424, 2,9-dimethyl-6-(2-((2-(methylamino)-1-phenylethoxy)methyl)benzyl)-6,7,8,9-tetrahydro-5H-pyrimido[4,5-e][1,4]diazepin-5-one] | – |
| > 3000 | CCNc1ncc2c(n1)N(C)CCN(c1cccc(COC(C)CCN(C)C(=O)OC(C)(C)C)c1)C2=O (stereo not drawn) [Example 127, tert-butyl (3-((3-(2-(ethylamino)-9-methyl-5-oxo-5,7,8,9-tetrahydro-6H-pyrimido[4,5-e][1,4]diazepin-6-yl)benzyl)oxy)butyl) (methyl)carbamate] | – |
| > 3000 | CCNc1ncc2c(n1)N(C)CCN(c1ccccc1COC(CNC)c1ccccc1)C2=O (stereo not drawn) [Example 339, 2-(ethylamino)-9-methyl-6-(2-((2-(methylamino)-1-phenylethoxy)methyl)phenyl)-6,7,8,9-tetrahydro-5H-pyrimido[4,5-e][1,4]diazepin-5-one] | – |
| > 3000 | CCNc1ncc2c(n1)N(C)CCN(c1cccc(OC(C)CN(C)C(=O)OC(C)(C)C)c1)C2=O (stereo not drawn) [Example 74, tert-butyl (2-(3-(2-(ethylamino)-9-methyl-5-oxo-5,7,8,9-tetrahydro-6H-pyrimido[4,5-e][1,4]diazepin-6-yl)phenoxy)propyl) (methyl)carbamate] | – |
| 500 to 3000 | CCNc1ncc2c(n1)N(C)CCN(c1cccc(Cn3cc(CNC)nn3)c1)C2=O [Example 184, 2-(ethylamino)-9-methyl-6-(3-((4-((methylamino)methyl)-1H-1,2,3-triazol-1-yl)methyl)phenyl)-6,7,8,9-tetrahydro-5H-pyrimido[4,5-e][1,4]diazepin-5-one] | – |
| 100 to 500 | CCNc1ncc2c(n1)N(C)CCN(c1cccc(-n3cc(CNCCOCCO)nn3)c1)C2=O [Example 290, 2-(ethylamino)-6-(3-(4-(((2-(2-hydroxyethoxy)ethyl)amino)methyl)-1H-1,2,3-triazol-1-yl)phenyl)-9-methyl-6,7,8,9-tetrahydro-5H-pyrimido[4,5-e] [1,4]diazepin-5-one] | – |
| > 3000 | CCNc1ncc2c(n1)N(C)CCN(c1ccccc1OC(CCNC)c1ccccc1)C2=O (stereo not drawn) [Example 188, 2-(ethylamino)-9-methyl-6-(2-(3-(methylamino)-1-phenylpropoxy)phenyl)-6,7,8,9-tetrahydro-5H-pyrimido[4,5-e][1,4]diazepin-5-one] | – |
| > 3000 | CCNc1ncc2c(n1)N(C)CCN(c1cccc(C#N)c1)C2=O [Example 110, 3-(2-(ethylamino)-9-methyl-5-oxo-5,7,8,9-tetrahydro-6H-pyrimido[4,5-e][1,4]diazepin-6-yl)benzonitrile] | – |
| – | CCNc1ncc2c(n1)N(C)CCN(c1cccc(CO[C@@H](CCNC)c3cccs3)c1)C2=O (stereo in doubt) [Example 213] | Ki: 500 to 3000 nM; Ki (read-out: Ki (nM) α2δ-1, Table 2, dual compounds, [3H]-Gabapentin binding): 500 to 3000 nM |
| 500 to 3000 | CCNc1ncc2c(n1)N(C)CCN(c1cccc(OC(CN(C)Cc3ccccc3)C(C)C)c1)C2=O (stereo not drawn) [Example 267, 6-(3-((1-(benzyl(methyl)amino)-3-methylbutan-2-yl)oxy)phenyl)-2-(ethylamino)-9-methyl-6,7,8,9-tetrahydro-5H-pyrimido[4,5-e][1,4]diazepin-5-one] | – |
| > 3000 | CSc1ncc2c(n1)N(C)CCN(Cc1ccc(OC(CN(C)C(=O)OC(C)(C)C)c3ccccc3)cc1)C2=O (stereo not drawn) [Example 63, tert-butyl methyl(2-(4-((9-methyl-2-(methylthio)-5-oxo-5,7,8,9-tetrahydro-6H-pyrimido[4,5-e][1,4]diazepin-6-yl)methyl)phenoxy)-2-phenylethyl)carbamate] | – |
| 100 to 500 | CNCC[C@H](Oc1ccc(CN2CCN(C)c3c(F)cncc3C2=O)cc1)c1cccs1 [Example 399, (S)-9-fluoro-1-methyl-4-(4-(3-(methylamino)-1-(thiophen-2-yl)propoxy)benzyl)-1,2,3,4-tetrahydro-5H-pyrido[4,3-e][1,4]diazepin-5-one] | – |
| > 3000 | CSc1ncc2c(n1)N(C)CCN(c1cccc(COC(C)CCN(C)C(=O)OC(C)(C)C)c1)C2=O (stereo not drawn) [Example 50, tert-butyl methyl(3-((3-(9-methyl-2-(methylthio)-5-oxo-5,7,8,9-tetrahydro-6H-pyrimido[4,5-e][1,4]diazepin-6-yl)benzyl)oxy)butyl) carbamate] | – |
| > 3000 | CCNc1ncc2c(n1)N(C)CCN(c1cccc(CCOS(=O)(=O)c3ccc(C)cc3)c1)C2=O [Example 274, 3-(2-(Ethylamino)-9-methyl-5-oxo-5,7,8,9-tetrahydro-6H-pyrimido[4,5-e][1,4]diazepin-6-yl)phenethyl 4-methylbenzenesulfonate] | – |
| 100 to 500 | CCNc1ncc2c(n1)N(C)CCN(c1cccc(OCCCN(C)C)c1)C2=O [Example 257, 6-(3-(3-(dimethylamino)propoxy)phenyl)-2-(ethylamino)-9-methyl-6,7,8,9-tetrahydro-5H-pyrimido[4,5-e][1,4]diazepin-5-one] | – |
| 100 to 500 | CCNc1ncc2c(n1)N(C)CCN(c1cccc(-c3nnc(CN(C)Cc4ccccc4)o3)c1)C2=O [Example 255, 6-(3-(5-((benzyl(methyl)amino)methyl)-1,3,4-oxadiazol-2-yl)phenyl)-2-(ethylamino)-9-methyl-6,7,8,9-tetrahydro-5H-pyrimido[4,5-e][1,4]diazepin-5-one] | – |
| 100 to 500 | CNCC[C@H](Oc1ccc(CN2CCN(C)c3nc(OC)ncc3C2=O)cc1C)c1cccs1 [Example 393, (S)-2-methoxy-9-methyl-6-(3-methyl-4-(3-(methylamino)-1-(thiophen-2-yl)propoxy)benzyl)-6,7,8,9-tetrahydro-5H-pyrimido[4,5-e][1,4]diazepin-5-one] | – |
| 500 to 3000 | CCNc1ncc2c(n1)N(C)CCN(c1cccc(-c3nnc(C)o3)c1)C2 [Example 66, N-ethyl-9-methyl-6-(3-(5-methyl-1,3,4-oxadiazol-2-yl)phenyl)-6,7,8,9-tetrahydro-5H-pyrimido[4,5-e][1,4]diazepin-2-amine] | – |
| > 3000 | CSc1ncc2c(n1)N(C)CCN(c1ccc(OC(CN(C)C(=O)OC(C)(C)C)c3ccccc3)cc1)C2=O (stereo not drawn) [Example 8, tert-butyl methyl(2-(4-(9-methyl-2-(methylthio)-5-oxo-5,7,8,9-tetrahydro-6H-pyrimido[4,5-e][1,4]diazepin-6-yl)phenoxy)-2-phenylethyl) carbamate] | – |
| > 3000 | CNCC(Oc1ccccc1N1CCN(C)c2ncncc2C1=O)c1ccccc1 (stereo not drawn) [Example 362, 9-methyl-6-(2-(2-(methylamino)-1-phenylethoxy)phenyl)-6,7,8,9-tetrahydro-5H-pyrimido[4,5-e][1,4]diazepin-5-one] | – |

| SMILES | Ki [1] [nM] | other results |
| --- | --- | --- |
| CSc1ncc2c(n1)N(C)CCN(c1cccc(O[Si](C)(C)C(C)(C)C)c1)C2=O [Example 34, 6-(3-((tert-butyldimethyl-silyl)oxy)phenyl)-9-methyl-2-(methylthio)-6,7,8,9-tetrahydro-5H-pyrimido[4,5-e][1,4]diazepin-5-one] | > 3000 | – |
| CSc1ncc2c(n1)N(C)CCN(c1cccc(COC(CN(C)C(=O)OCC[Si](C)(C)C)c3ccccc3)c1)C2=O (stereo not drawn) [Example 19, 2-(trimethyl-silyl)ethyl methyl(2-((3-(9-methyl-2-(methylthio)-5-oxo-5,7,8,9-tetrahydro-6H-pyrimido[4,5-e][1,4]diazepin-6-yl)benzyl)oxy)-2-phenylethyl) carbamate] | > 3000 | – |
| Cc1ncc2c(n1)N(C)CCN(c1cccc(OC(CCN(C)C(=O)OCC[Si](C)(C)C)c3cccs3)c1)C2=O (stereo not drawn) [Example 144, 2-(trimethylsilyl)ethyl (3-(3-(2,9-dimethyl-5-oxo-5,7,8,9-tetrahydro-6H-pyrimido[4,5-e][1,4]diazepin-6-yl)phenoxy)-3-(thiophen-2-yl)propyl)(methyl) carbamate] | > 3000 | – |
